The subject of one assay is Amblyomma americanum. Description: Pen study: FDF efficacy against Amblyomma americanum parasitizing white-tailed deer (tick capsules, 8-day post-attachment). The assay is classed as in vivo. The following applies: Cp 13.5 ppb; the tick was A. americanum.
Assay [1] relates to I. scapularis larvae. The note with it: larvae parasitizing P. leucopus; Poché et al. 2021; cited from earlier work.
The test system of assay [2] is I. scapularis larvae. The note with it: larvae parasitizing Peromyscus maniculatus; Pelletier et al. 2020; cited from earlier work.

This is an account of results in US20250312311A1, “Low Dose Fipronil Deer Feed” (priority 2024, published 2025).

Molecules are shown by their SMILES.

For `N#Cc1nn(-c2c(Cl)cc(C(F)(F)F)cc2Cl)c(N)c1S(=O)(=O)C(F)(F)F` [fipronil sulfone], the “live female ticks collected in total from a deer having Cp at 13.5 ppb” value in the assay on Amblyomma americanum is given as “one”. The “Cp determined to control 100% I. scapularis larvae” value in the assay on I. scapularis larvae [1] is on record as at least 8.8 ppb.

Turning to `Cc1cc(C2=NOC(c3cc(Cl)cc(Cl)c3)(C(F)(F)F)C2)ccc1C(=O)NCC(=O)NCC(F)(F)F` (stereo not shown) [fluralaner], in the assay on I. scapularis larvae [2], the “concentration in plasma required to control 94% I. scapularis larvae” value is 4000 ppb and the “concentration in plasma required to control 97% I. scapularis larvae” value is given as 13000 ppb.
